Assay results from patent US20230339896A1, “HPK1 INHIBITORS AND USES THEREOF” (QILU REGOR THERAPEUTICS INC., priority 2020, published 2023).

Experiments:
[1] = Metabolic stability in liver microsomes, human (HLM); format: in vitro ADME; settings: 1 µM compound, NADPH; for half-life at 1 µM: human, liver microsomes, pH 7.4, 0.5 mg/mL protein, read-out: Metabolic Stability T½ (min), HLM
Procedure: (§1) This assay is for determining the stability of test compound in liver microsomes. The study will be conducted in accordance with International Bioethical Standards “World Medical Association Declaration of
(§2) Human, Sprague Dawley Rat, CD-1 mouse, Beagle Dog and Cynomolgus Monkey Liver Microsomes samples purchased from BD Gentest or RILD.
(§3) 0.1 M Potassium phosphate buffer, pH 7.4: • Buffer A: 1.0 L of 0.1 M monobasic Potassium Phosphate buffer containing 1.0 mM EDTA • Buffer B: 1.0 L of 0.1 M Dibasic Potassium Phosphate buffer containing 1.0 mM EDTA • Buffer C (K-phosphate buffer): 0.1 M Potassium Phosphate buffer, 1.0 mM EDTA, pH 7.4 by titrating 700 mL of buffer B with buffer A while monitoring the pH meter
(§4) • Prepare 3× test compound or positive control solutions: 500 µM spiking solution: add 10 µL of 10 mM DMSO stock solution into 190 µL ACN. • 1.5 µM spiking solution in microsomes (0.75 mg/mL): add 1.5 µL of 500 µM spiking solution and 18.75 µL of 20 mg/mL liver microsomes into 479.75 µL of K-phosphate buffer.
(§5) Add 30 µL of 1.5 µM spiking solution containing 0.75 mg/ml microsomes solution to the wells designated for 45 min, 30 min, 15 min, 5 min and 0 min. Pre-incubate the plate at 37° C. for 5 minutes.
(§6) Add 15 µL of NADPH stock solution (6 mM) to all of the wells, and start timing. Immediately, add 135 µL of ACN containing IS to the wells designated as Time 0.
(§7) At 5 min, 15 min, 30 min and 45 min, add 135 µL of ACN containing IS to the wells, respectively.
(§8) After quenching, centrifuge the reaction mixtures at 3220 x g for 10 min.
(§9) Transfer 50 µL of the supernatant from each well into a 96-well sample plate containing 50 µL of ultra pure water (Millipore) for LC/MS analysis.
(§10) The % parent remaining at each incubation time point is calculated by comparing to the peak area ratio (compound peak area/internal standard peak area) at T0 (0 minute incubation). The ln peak area ratio is plotted against time and the gradient of the line is determined. The half-life and metabolism of compounds is calculated based upon a natural log linear regression of the relative peak areas vs time. The half-life and intrinsic clearance (Clint) in microsomes are calculated using the equations below. • In Vitro T ½ (min) = 0.693/Elimination rate of constant (k) • Clint (µL/min/mg of microsomal protein) = (0.693 / In Vitro T ½) (Incubation Volume/ mg of microsomes)

[2] = Metabolic stability in liver microsomes, mouse (MLM); format: in vitro ADME, CD-1 mouse; settings: 1 µM compound, NADPH; for half-life at 1 µM: CD-1, mouse, liver microsomes, pH 7.4, 0.5 mg/mL protein, read-out: Metabolic Stability T½ (min), MLM
Procedure: as §1, §2, §3, §4, §5, §6, §7, §8, §9, §10

Compound	half-life at 1 µM [1]	half-life at 1 µM [2]	Metabolic Stability T½ (min), HLM ([1]; 0.5 mg/mL protein)	Metabolic Stability T½ (min), MLM ([2]; 0.5 mg/mL protein)
COc1cc2c(cc1Nc1ncc(Cl)c(N3CC(C)(CC(=O)O)c4ccccc43)n1)CN(C)CC2 (single isomer, unassigned) [Example 2, (R)-2-(1-(5-chloro-2-((6-methoxy-2-methyl-1,2,3,4-tetrahydroisoquinolin-7-yl)amino)pyrimidin-4-yl)-3-methylindolin-3-yl)acetic acid or (S)-2-(1-(5-chloro-2-((6-methoxy-2-methyl-1,2,3,4-tetrahydroisoquinolin-7-yl)amino)pyrimidin-4-yl)-3-methylindolin-3-yl)acetic acid]	90.8 min	101 min		
CN1CCc2cc(F)c(Nc3ncc(Cl)c(N4C[C@](C)(CC(=O)O)c5ccccc54)n3)cc2C1 (single isomer, unassigned) [Example 5, (R)-2-[1-[5-chloro-2-[(6-fluoro-2-methyl-3,4-dihydro-1H-isoquinolin-7-yl)amino]pyrimidin-4-yl]-3-methyl-indolin-3-yl]acetic acid or (S)-2-[1-[5-chloro-2-[(6-fluoro-2-methyl-3,4-dihydro-1H-isoquinolin-7-yl)amino]pyrimidin-4-yl]-3-methyl-indolin-3-yl]acetic acid]			HLM: 68 min	MLM: 86 min
COc1cc2c(cc1Nc1ncc(Cl)c(N3CC(C(=O)O)c4ccccc43)n1)CN(C)CC2 (centres unmarked) [Compound 7, reference compound]	237 min	> 5000 min		
COc1cc2c(cc1Nc1ncc(Cl)c(N3CC(CC(=O)O)c4ccccc43)n1)CN(C)CC2 (centres unmarked) [Compound 8, reference compound]	145 min	145 min		
COc1cc2c(cc1Nc1ncc(Cl)c(N3CC(C)(CC(=O)O)c4ccc(F)cc43)n1)CN(C)CC2 (centres unmarked) [Compound 10, reference compound]	51 min	46.1 min		
COc1cc2c(cc1Nc1ncc(Cl)c(N3CC(C)(CC(=O)O)c4ccccc43)n1)CN(C)CC2 (centres unmarked) [Example 1, 2-(1-(5-chloro-2-((6-methoxy-2-methyl-1,2,3,4-tetrahydroisoquinolin-7-yl)amino)pyrimidin-4-yl)-3-methylindolin-3-yl)acetic acid]	54.4 min	84 min		
CN1CCc2cc(F)c(Nc3ncc(Cl)c(N4CC(C)(CC(=O)O)c5ccccc54)n3)cc2C1 (centres unmarked) [Example 4, 2-(1-(5-chloro-2-((6-fluoro-2-methyl-1,2,3,4-tetrahydroisoquinolin-7-yl)amino)pyrimidin-4-yl)-3-methylindolin-3-yl)acetic acid]	110 min	79.4 min		
